These results are taken from PubChem BioAssay (NCI).

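Interpolation was linear, between the two tested concentrations surrounding the appropriate level; five concentrations were tested over 48 hours in 96-well plates. GI50 is the concentration that inhibits growth by half. At the TGI there is no net growth.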

Test systems include BT-549 breast; HL-60(TB) leukemia; MDA-MB-435; PC-3 prostate; RPMI-8226 leukemia; SK-MEL-28 melanoma; SN12C renal; SNB-75 CNS; SW-620 colon; UO-31 renal.
Experiment in all cases: inhibition of tumour cell growth, NCI panel, 48 h

On to `COc1ccc(/C=C2\CN(C(=O)CCN3CCC(=NO)CC3)C/C(=C\c3ccc(OC)cc3)C2=O)cc1`, for which the GI50 was 2.17 µM in the experiment on BT-549 breast; 2.8 µM in the experiment with HL-60(TB) leukemia; 1.76 µM in the experiment with MDA-MB-435; 2 µM in the experiment on PC-3 prostate; 0.648 µM in the experiment on RPMI-8226 leukemia; 2 µM with SK-MEL-28 melanoma. The GI50 was 2.27 µM with SN12C renal, 2.14 µM with SNB-75 CNS, 1.39 µM with SW-620 colon and 1.59 µM in the experiment with UO-31 renal. For the same compound, the TGI in the experiment on BT-549 breast amounted to 6.08 µM; in the experiment on HL-60(TB) leukemia it was 8.27 µM; in the experiment on MDA-MB-435 it was 3.49 µM; in the experiment with PC-3 prostate, 4.74 µM; in the experiment on RPMI-8226 leukemia, 3.79 µM; in the experiment on SK-MEL-28 melanoma, 4.17 µM. In addition, the TGI in the experiment on SN12C renal was determined as 5.92 µM; with SNB-75 CNS, 9.33 µM; with SW-620 colon it was 3.14 µM; in the experiment with UO-31 renal, 2.94 µM.
For `CC(C)(C)c1cc(C(=O)/C=C/c2ccc(O)c(O)c2O)cc(C(C)(C)C)c1O`, the TGI in the experiment on BT-549 breast was determined as 28.2 µM; in the experiment with HL-60(TB) leukemia it was 5.82 µM; in the experiment with MDA-MB-435 it was 36.7 µM; in the experiment with PC-3 prostate, 15.7 µM; in the experiment on RPMI-8226 leukemia, 4.4 µM; with SK-MEL-28 melanoma, 28.1 µM. For the same compound, the TGI in the experiment on SN12C renal was 13.8 µM; in the experiment with SNB-75 CNS, 12.6 µM; with SW-620 colon it was 17.9 µM; in the experiment with UO-31 renal it was 13.9 µM.
In the case of `COc1ccc(NC(=O)CC(=O)n2nc(C)c(N=Nc3ccc(C)c(C)c3)c2C)cc1`, the TGI with BT-549 breast, with HL-60(TB) leukemia, with MDA-MB-435, in the experiment with PC-3 prostate, in the experiment on RPMI-8226 leukemia and in the experiment on SK-MEL-28 melanoma was above 100 µM each time. The TGI with SN12C renal is above 100 µM; with SNB-75 CNS it was 87 µM; with SW-620 colon it was above 100 µM; in the experiment on UO-31 renal it was 54.8 µM.
For `Cc1nc(-c2ccccc2)c(C)n2c1nc1ccccc12`, the TGI was 65.5 µM with BT-549 breast; 44.4 µM with HL-60(TB) leukemia; 59.5 µM in the experiment with MDA-MB-435; above 100 µM in the experiment with PC-3 prostate; 40.6 µM in the experiment with RPMI-8226 leukemia; above 100 µM in the experiment with SK-MEL-28 melanoma. The TGI was above 100 µM in the experiment with SN12C renal, 66.3 µM in the experiment on SNB-75 CNS, above 100 µM with SW-620 colon and 79.1 µM in the experiment with UO-31 renal.
Regarding `COc1ccc2c(c1)c1nn(CCN(C)C)c3ccc4c(=O)n(CCN(C)C)c(=O)n2c4c13`, the TGI with BT-549 breast is 2.6 µM; in the experiment on HL-60(TB) leukemia, 0.34 µM; with MDA-MB-435, 0.166 µM; with PC-3 prostate it was 0.262 µM; with RPMI-8226 leukemia it was below 0.0192 µM; with SK-MEL-28 melanoma it was 0.854 µM. In addition, the TGI worked out at 0.517 µM in the experiment with SN12C renal, 0.0778 µM in the experiment with SNB-75 CNS, 0.355 µM in the experiment with SW-620 colon and 0.329 µM with UO-31 renal.
Turning to `COc1cc(N(CCC#N)CCC#N)ccc1/C(N=Nc1ccc(C)cc1)=N/NC(=O)c1cc(Br)ccc1O`, the TGI was 62.6 µM with BT-549 breast; 40.9 µM in the experiment on HL-60(TB) leukemia; above 100 µM in the experiment with MDA-MB-435; 66.5 µM with PC-3 prostate; above 100 µM with RPMI-8226 leukemia; 85.2 µM in the experiment with SK-MEL-28 melanoma. In addition, the TGI was 54.9 µM in the experiment on SN12C renal, 75 µM in the experiment with SNB-75 CNS, above 100 µM in the experiment on SW-620 colon and 60.3 µM in the experiment with UO-31 renal.
With `CN(C)CCN1C(=O)CC[C@@]2(C)C1=CC[C@@H]1[C@@H]2CC[C@@]2(C)[C@H]1CC[C@]2(C)O`, the TGI with BT-549 breast, in the experiment with HL-60(TB) leukemia, in the experiment with MDA-MB-435, with PC-3 prostate, in the experiment with RPMI-8226 leukemia and in the experiment with SK-MEL-28 melanoma was above 100 µM each time. Further, the TGI with SN12C renal, with SNB-75 CNS, in the experiment with SW-620 colon and in the experiment on UO-31 renal was above 100 µM in each case.
In the case of `O=[N+]([O-])c1ccc(Cl)cc1-n1nc(-c2ccccc2)cc1-c1ccccc1`, the TGI in the experiment with BT-549 breast, in the experiment on HL-60(TB) leukemia, in the experiment on MDA-MB-435, in the experiment with PC-3 prostate, in the experiment with RPMI-8226 leukemia and with SK-MEL-28 melanoma was above 100 µM in each case. The TGI in the experiment with SN12C renal, with SNB-75 CNS, in the experiment on SW-620 colon and with UO-31 renal was above 100 µM each time.
In the case of `COC(=O)C1Cc2ccc(C)cc2C1=O` (stereo not given), the TGI in the experiment with BT-549 breast, in the experiment on HL-60(TB) leukemia, in the experiment on MDA-MB-435, in the experiment on PC-3 prostate, in the experiment with RPMI-8226 leukemia and with SK-MEL-28 melanoma was above 100 µM throughout. For the same compound, the TGI in the experiment on SN12C renal, in the experiment on SNB-75 CNS, in the experiment with SW-620 colon and in the experiment on UO-31 renal was above 100 µM throughout.
On to `N#C/C(=C1\N=C(c2ccccc2O)Oc2ccccc21)c1ccc([N+](=O)[O-])cc1`, for which the TGI with BT-549 breast, with HL-60(TB) leukemia, in the experiment with MDA-MB-435, with PC-3 prostate, in the experiment on RPMI-8226 leukemia and in the experiment with SK-MEL-28 melanoma was above 100 µM throughout. Also, the TGI in the experiment on SN12C renal, with SNB-75 CNS, with SW-620 colon and in the experiment with UO-31 renal was above 100 µM each time.
Consider `O=C(O)c1cccc(S(=O)(=O)NN2C(=O)CSC2c2ccccc2)c1` (stereo not given), for which the TGI in the experiment with BT-549 breast, in the experiment with HL-60(TB) leukemia, in the experiment on MDA-MB-435, in the experiment on PC-3 prostate, in the experiment with RPMI-8226 leukemia and in the experiment on SK-MEL-28 melanoma was above 100 µM in each case. Moreover, the TGI with SN12C renal, in the experiment with SNB-75 CNS, in the experiment on SW-620 colon and in the experiment on UO-31 renal was above 100 µM in each case.
With `CCOC(=O)c1c(O)[nH]c(=O)c(CC)c1C`, the TGI in the experiment on BT-549 breast, with HL-60(TB) leukemia, in the experiment on MDA-MB-435, with PC-3 prostate, in the experiment with RPMI-8226 leukemia and with SK-MEL-28 melanoma was above 100 µM throughout. Further, the TGI in the experiment with SN12C renal, with SNB-75 CNS, with SW-620 colon and in the experiment with UO-31 renal was above 100 µM each time.
As for `CN(C)CCOc1ccc(I)cc1Cc1ccccc1`, the TGI came out at 28.6 µM in the experiment on BT-549 breast; 18.1 µM in the experiment on HL-60(TB) leukemia; 15.4 µM in the experiment on MDA-MB-435; 20.5 µM in the experiment on PC-3 prostate; 23.9 µM in the experiment on RPMI-8226 leukemia; 16.6 µM in the experiment on SK-MEL-28 melanoma. In addition, the TGI is 25 µM with SN12C renal, 6.79 µM with SNB-75 CNS, 32.4 µM in the experiment on SW-620 colon and 20.4 µM in the experiment with UO-31 renal.
As for `CC(=O)N1c2ccccc2C(C)(C)OC1C(Cl)(Cl)Cl` (stereo not given), the TGI is 81 µM in the experiment on BT-549 breast; 36.7 µM with HL-60(TB) leukemia; above 100 µM in the experiment on MDA-MB-435; above 100 µM in the experiment with PC-3 prostate; 33.6 µM with RPMI-8226 leukemia; above 100 µM with SK-MEL-28 melanoma. In addition, the TGI in the experiment with SN12C renal was above 100 µM; with SNB-75 CNS, 71.9 µM; in the experiment on SW-620 colon it was above 100 µM; in the experiment on UO-31 renal, above 100 µM.
As to `O/N=c1/ccn(O)c2ccccc12`, the TGI in the experiment with BT-549 breast was determined as 3.13 µM; with HL-60(TB) leukemia, 8.8 µM; with MDA-MB-435, 17.4 µM; in the experiment on PC-3 prostate it was 8.88 µM; in the experiment with RPMI-8226 leukemia it was 0.542 µM; with SK-MEL-28 melanoma it was 3.16 µM. Moreover, the TGI is 5.7 µM in the experiment with SN12C renal, 1.98 µM in the experiment on SNB-75 CNS, 11.8 µM in the experiment with SW-620 colon and 3.93 µM with UO-31 renal.
For the compound `Cn1c(=O)n2n(c1=O)Cc1cccc3cccc(c13)C2`, the TGI is above 100 µM with BT-549 breast; 4.18 µM in the experiment with HL-60(TB) leukemia; above 100 µM in the experiment with MDA-MB-435; above 100 µM in the experiment with PC-3 prostate; above 100 µM in the experiment with RPMI-8226 leukemia; above 100 µM in the experiment on SK-MEL-28 melanoma. Besides, the TGI in the experiment with SN12C renal, in the experiment with SNB-75 CNS, with SW-620 colon and with UO-31 renal was above 100 µM each time.
With `NS(=O)(=O)c1ccc(NC(=O)c2cc([N+](=O)[O-])cc([N+](=O)[O-])c2)cc1`, the TGI in the experiment on BT-549 breast was above 100 µM; with HL-60(TB) leukemia, 97.4 µM; with MDA-MB-435, 35 µM; in the experiment with PC-3 prostate, 86.8 µM; with RPMI-8226 leukemia, above 100 µM; with SK-MEL-28 melanoma, above 100 µM. The TGI with SN12C renal is 90.7 µM; in the experiment on SNB-75 CNS, above 100 µM; with SW-620 colon, above 100 µM; in the experiment with UO-31 renal, above 100 µM.
For the compound `Cc1nc2c(o1)C(=O)c1ccccc1C2=NC1CCCCC1N` (stereo not given), the TGI in the experiment on BT-549 breast worked out at 1.29 µM; in the experiment on HL-60(TB) leukemia it was 0.749 µM; with MDA-MB-435 it was 0.302 µM; in the experiment with PC-3 prostate, 3.46 µM; with RPMI-8226 leukemia, 4.2 µM; in the experiment with SK-MEL-28 melanoma it was 0.313 µM. For the same compound, the TGI is 1.16 µM in the experiment on SN12C renal, 0.564 µM in the experiment with SNB-75 CNS, 1.38 µM with SW-620 colon and 3 µM in the experiment with UO-31 renal.
In the case of `CCOC(=O)c1cccc(NC(=O)CBr)c1`, the TGI with BT-549 breast worked out at 4.15 µM; in the experiment with HL-60(TB) leukemia, 3.58 µM; in the experiment on MDA-MB-435, 2.51 µM; in the experiment with PC-3 prostate it was 2.94 µM; with RPMI-8226 leukemia, 3.74 µM; with SK-MEL-28 melanoma, 7.75 µM. The TGI in the experiment with SN12C renal came to 0.907 µM; in the experiment with SNB-75 CNS, 3.31 µM; in the experiment on SW-620 colon, 1.66 µM; in the experiment on UO-31 renal, 1.96 µM.
